In patent US20050187161A1, “Biopanning as an approach to study the pathogenesis of and produce novel treatment modalities for invasive Aspergillosis” (priority 2003, published 2005):
Ends that are not written are not given here.

Tested on: A. fumigatus conidia
Test: BRASIL selection of CX7C phage display library on A. fumigatus conidia
Type: binding, Aspergillus fumigatus
Conditions: after 4 selection rounds, clones with the motif / 40 random phage clones sequenced
Procedure: (§1) To identify potential host ligands that bind on the surface of A. fumigatus conidia and hyphae, a phage display library (CX7C) for A. fumigatus conidia and hyphae binding ligands using BRASIL is screened. The Aspergillus fumigatus clinical isolate AF293 (currently being used in the Aspergillus sequencing project, provided kindly by Dr. D. Denning, Manchester, UK.) is plated on YAG plates at 37° C. for 3 days and conidia are collected. Conidia (suspensions of 10^4 conidia/ml) are incubated at 37° C. for 16-20 hours in liquid YAG medium to allow for germination to hyphae. Conidia or hyphae, collected as described earlier, were then incubated with 10^9 transducing units (TU) of CX7C phage display library (Arap et al., 2002). A phage-conidia/hyphae suspension in an upper aqueous phase is centrifuged through a non-miscible organic phase with an intermediate specific density. Upon optimized centrifugation conditions conidia or hyphae entered the lower organic phase and pellet at the bottom of the tube, carrying with them only the specifically bound phage (FIG. 10). Dibutylphtalate:Cyclohexane ratio of the organic phase is preferably 6:1. Hyphae needed 100,000 g for pelleting as compared to 10,000 g for conidia (FIG. 10). The conidia/hyphae pellet is then recovered (after freezing, FIG. 10), and the phage is rescued by infection of E. coli K91kan bacteria (FIG. 1). Amplified phage was then used for subsequent rounds of selection (FIG. 10)
(§2) Infected E. coli K91Kan were incubated overnight in LB medium with kanamycin as selection marker (70 μg/ml), tetracycline that served as inducer of phage multiplication (40 μg/ml, the phage also contains the tetracycline resistance gene tetR), and voriconazole for suppression of conidial and hyphal growth (4 μg/ml). The next day, the phage was first separated from E. coli by centrifuigation, recovered using PEG/NaCl, and finally tittrated (to 109 TU units/μl) in order to be used in subsequent selection rounds.
(§3) After 4 rounds of selection for conidia 5 rounds for hyphae, peptide-inserts of 40 random phage clones (each for conidia and hyphae) were sequenced and analyzed for peptide sequences according to enrichment and by ClustalW sequence alignment. Selected motifs were then used to search non-redundant protein databanks.

Row | Molecule | Times identified
1 | SSGDRTA (listed as Aspergillus fumigatus) | 2/40
2 | GARASGS (listed as Aspergillus fumigatus) | 4/40
3 | IGRAPQM (listed as Aspergillus fumigatus) | 2/40
4 | SLVRGGT (listed as Aspergillus fumigatus) | 2/40
5 | ELLRRGGS (ELRRGGS; listed as Aspergillus fumigatus) | 2/40
6 | GGWGPGS (listed as Aspergillus fumigatus) | 2/40
7 | LLSATPS (listed as Aspergillus fumigatus) | 8/40
8 | WGHSRDE (not fully specified (N-terminus, C-terminus, bridges); listed as Aspergillus fumigatus) [synthetic peptide used as …] | 12/40

Tested on: IA
Test: not given
Conditions: Abruzzo et al., 1997; cited from earlier work

Row | Molecule | efficacy in animal models of IA
9 | CC[C@H](C)C[C@H](C)CCCCCCCCC(=O)N[C@H]1C[C@@H](O)[C@@H](NCCN)NC(=O)[C@@H]2[C@@H](O)CCN2C(=O)[C@H]([C@H](O)CCN)NC(=O)[C@H]([C@H](O)[C@@H](O)c2ccc(O)cc2)NC(=O)[C@@H]2C[C@@H](O)CN2C(=O)[C@H]([C@@H](C)O)NC1=O [CAS, Caspofungin] | shown efficacy

Tested on: AF293 conidia
Test: Inhibition of WGHSRDE phage binding on AF293 conidia by synthetic peptide
Parameters: species or system Aspergillus fumigatus
Conditions: FIG. 13; synthetic peptide 0.1, 1, 10 and 100 μM
Procedure: To validate that the CWGHSRDEC (SEQ ID NO:1) phage is mediating specific binding to AF293 conidia, the CWGHSRDEC (SEQ ID NO:) phage and the AF293 conidia are co-incubated in the presence of increasing concentrations of the CWGHSRDEC (SEQ ID NO: 1) peptide. A decrease in the amount of CWGHSRDEC (SEQ ID NO: 1) phage binding on the surface of AF293 conidia after adding the CWGHSRDEC (SEQ ID NO:1) peptide indicates the CWGHSRDEC (SEQ ID NO:1) peptide binds to the surface of AF293 conidia thus preventing the corresponding phage from binding on these sites.
Protocol: Increasing concentrations of the synthetic CWGHSRDEC (SEQ ID NO:1) peptide or a control scramble peptide (e.g., CLLSATPSC (SEQ ID NO:)) (0.1, 1, 10 and 100 μM) is incubated with 200 μl of a 5×10^8 AF293 conidia/ml solution in 1% BSA/PBS for 1 hour at room temperature and 10^8 TU of CWGHSRDEC (SEQ ID NO:1) phage is added and incubated for 2 hours at room temperature. The conidia/phage suspension is centrifuged over an organic phase for 10 min at 10,000 g. Pelleted conidia/phage is used for k91kan infection. The BRASIL method is followed as previously mentioned. A potential decrease in the phage binding on AF293 conidia as a function of the addition of the CWGHSRDEC (SEQ ID NO:1) peptide is graphed as shown in FIG. 13 (Giordano et al, 2001): […]

Row | Molecule | inhibition of WGHSRDE phage binding on AF293 conidia
10 | WGHSRDE (not fully specified (N-terminus, C-terminus, bridges); listed as Aspergillus fumigatus) [synthetic peptide used as …] | specific inhibition

Tested on: Aspergillus
Test: not given
Conditions: Espinel-Ingroff, 1998; cited from earlier work

Row | Molecule | Aspergillus growth in vitro
11 | CC[C@H](C)C[C@H](C)CCCCCCCCC(=O)N[C@H]1C[C@@H](O)[C@@H](NCCN)NC(=O)[C@@H]2[C@@H](O)CCN2C(=O)[C@H]([C@H](O)CCN)NC(=O)[C@H]([C@H](O)[C@@H](O)c2ccc(O)cc2)NC(=O)[C@@H]2C[C@@H](O)CN2C(=O)[C@H]([C@@H](C)O)NC1=O [CAS, Caspofungin] | growth reduction

Tested on: A. fumigatus hyphae
Test: not given
Conditions: Bowman et al., 2002; cited from earlier work

Row | Molecule | viability of growing A. fumigatus hyphae by DiBAC staining
12 | CC[C@H](C)C[C@H](C)CCCCCCCCC(=O)N[C@H]1C[C@@H](O)[C@@H](NCCN)NC(=O)[C@@H]2[C@@H](O)CCN2C(=O)[C@H]([C@H](O)CCN)NC(=O)[C@H]([C@H](O)[C@@H](O)c2ccc(O)cc2)NC(=O)[C@@H]2C[C@@H](O)CN2C(=O)[C@H]([C@@H](C)O)NC1=O [CAS, Caspofungin] | kills the apical tips of hyphae

Tested on: A. fumigatus hyphae
Test: BRASIL selection of CX7C phage display library on A. fumigatus hyphae
Type: binding, Aspergillus fumigatus
Conditions: after 5 selection rounds, clones with the motif / 40 random phage clones sequenced
Procedure: as §1, §2, §3

Row | Molecule | Times identified
13 | ISTFARG (listed as Aspergillus fumigatus) | 1/40
14 | XCDSSVS (not fully specified; X: residue not identified in the source; listed as Aspergillus fumigatus) | 1/40
15 | VGVEYRT (listed as Aspergillus fumigatus) | 1/40
16 | VVGSADG (listed as Aspergillus fumigatus) | 1/40
17 | GGRLGPF (listed as Aspergillus fumigatus) | 2/40
18 | GTSRWLR (listed as Aspergillus fumigatus) | 1/40
19 | NPGYWGN (listed as Aspergillus fumigatus) | 1/40
20 | DLTHVSA (listed as Aspergillus fumigatus) | 1/40
